In ChEMBL document CHEMBL5236590, “Discovery of Novel N-(5-(Pyridin-3-yl)-1H-indazol-3-yl)benzamide Derivatives as Potent Cyclin-Dependent Kinase 7 Inhibitors for the Treatment of Autosomal Dominant Polycystic Kidney Disease” (J Med Chem, 2022):
Activity calls are given as the source filed them. The rule behind the calls is not given here.

What was measured:
[1] = target: Cyclin-dependent kinase 7 (Homo sapiens, UniProt P50613); test: Inhibition of CDK7 (unknown origin) assessed as phosphorylation of ULight 4EBP1 peptide substrate measured after 2 hrs by FRET-based LANCE Ultra KinSelect assay
Sequence of Cyclin-dependent kinase 7 (P50613 whole entry): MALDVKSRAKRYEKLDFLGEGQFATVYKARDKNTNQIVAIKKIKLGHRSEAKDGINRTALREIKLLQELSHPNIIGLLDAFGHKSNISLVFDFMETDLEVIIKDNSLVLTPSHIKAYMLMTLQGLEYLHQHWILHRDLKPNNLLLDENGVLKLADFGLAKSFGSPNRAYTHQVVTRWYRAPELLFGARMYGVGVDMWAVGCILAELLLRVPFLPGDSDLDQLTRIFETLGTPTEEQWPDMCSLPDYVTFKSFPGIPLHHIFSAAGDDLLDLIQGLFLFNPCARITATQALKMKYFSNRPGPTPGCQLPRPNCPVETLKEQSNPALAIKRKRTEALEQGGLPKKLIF

[2] = target: Cyclin-dependent kinase 1 (Homo sapiens, UniProt P06493); test: Inhibition of CDK1 (unknown origin)
[3] = target: Cyclin-dependent kinase 9 (Homo sapiens, UniProt P50750); test: Inhibition of CDK9 (unknown origin)
[4] = target: Glycogen synthase kinase-3 beta (Homo sapiens) (UniProt P49841); test: Inhibition of human full length GSK3beta expressed in mammalian system at 1 uM by KINOMEscan analysis relative to control
[5] = target: 5'-AMP-activated protein kinase catalytic subunit alpha-1 (Homo sapiens) (UniProt Q13131); test: Inhibition of human partial length AMPKalphal (M1/E306) expressed in bacterial system at 1 uM by KINOMEscan analysis relative to control
[6] = target: Mitogen-activated protein kinase kinase kinase 7 (Homo sapiens) (UniProt O43318); test: Inhibition of human partial length TAK1 (M1/Q303) expressed in mammalian system at 1 uM by KINOMEscan analysis relative to control
[7] = target: Protein kinase C theta type (Homo sapiens) (UniProt Q04759); test: Inhibition of human partial length TPKCtheta (L350/S706) expressed in bacterial system at 1 uM by KINOMEscan analysis relative to control
[8] = target: Aurora kinase A (Homo sapiens) (UniProt O14965); test: Inhibition of human partial length Aurora-A (E122/K401) expressed in mammalian system at 1 uM by KINOMEscan analysis relative to control
[9] = target: Serine/threonine-protein kinase 17A (Homo sapiens) (UniProt Q9UEE5); test: Inhibition of human partial length wild type DRAK1 expressed in bacterial system at 1 uM by KINOMEscan analysis relative to control
Sequence of Serine/threonine-protein kinase 17A (Homo sapiens) (Q9UEE5 whole entry): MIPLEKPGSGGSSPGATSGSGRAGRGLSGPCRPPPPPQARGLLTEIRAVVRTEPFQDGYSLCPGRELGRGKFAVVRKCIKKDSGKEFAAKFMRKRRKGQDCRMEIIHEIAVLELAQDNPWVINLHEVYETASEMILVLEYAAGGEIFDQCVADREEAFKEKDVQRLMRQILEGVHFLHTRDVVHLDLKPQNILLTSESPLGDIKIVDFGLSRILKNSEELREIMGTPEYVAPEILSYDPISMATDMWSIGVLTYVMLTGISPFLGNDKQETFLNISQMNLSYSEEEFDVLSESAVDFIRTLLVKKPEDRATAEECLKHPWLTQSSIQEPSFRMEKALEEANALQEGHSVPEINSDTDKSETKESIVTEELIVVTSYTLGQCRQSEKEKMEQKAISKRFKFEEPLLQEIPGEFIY

[10] = target: ALK tyrosine kinase receptor (Homo sapiens) (UniProt Q9UM73); test: Inhibition of human partial length ALK (I1088/E1409) expressed in mammalian system at 1 uM by KINOMEscan analysis relative to control
Sequence of ALK tyrosine kinase receptor (Homo sapiens) (Q9UM73 19-1620 limits assumed): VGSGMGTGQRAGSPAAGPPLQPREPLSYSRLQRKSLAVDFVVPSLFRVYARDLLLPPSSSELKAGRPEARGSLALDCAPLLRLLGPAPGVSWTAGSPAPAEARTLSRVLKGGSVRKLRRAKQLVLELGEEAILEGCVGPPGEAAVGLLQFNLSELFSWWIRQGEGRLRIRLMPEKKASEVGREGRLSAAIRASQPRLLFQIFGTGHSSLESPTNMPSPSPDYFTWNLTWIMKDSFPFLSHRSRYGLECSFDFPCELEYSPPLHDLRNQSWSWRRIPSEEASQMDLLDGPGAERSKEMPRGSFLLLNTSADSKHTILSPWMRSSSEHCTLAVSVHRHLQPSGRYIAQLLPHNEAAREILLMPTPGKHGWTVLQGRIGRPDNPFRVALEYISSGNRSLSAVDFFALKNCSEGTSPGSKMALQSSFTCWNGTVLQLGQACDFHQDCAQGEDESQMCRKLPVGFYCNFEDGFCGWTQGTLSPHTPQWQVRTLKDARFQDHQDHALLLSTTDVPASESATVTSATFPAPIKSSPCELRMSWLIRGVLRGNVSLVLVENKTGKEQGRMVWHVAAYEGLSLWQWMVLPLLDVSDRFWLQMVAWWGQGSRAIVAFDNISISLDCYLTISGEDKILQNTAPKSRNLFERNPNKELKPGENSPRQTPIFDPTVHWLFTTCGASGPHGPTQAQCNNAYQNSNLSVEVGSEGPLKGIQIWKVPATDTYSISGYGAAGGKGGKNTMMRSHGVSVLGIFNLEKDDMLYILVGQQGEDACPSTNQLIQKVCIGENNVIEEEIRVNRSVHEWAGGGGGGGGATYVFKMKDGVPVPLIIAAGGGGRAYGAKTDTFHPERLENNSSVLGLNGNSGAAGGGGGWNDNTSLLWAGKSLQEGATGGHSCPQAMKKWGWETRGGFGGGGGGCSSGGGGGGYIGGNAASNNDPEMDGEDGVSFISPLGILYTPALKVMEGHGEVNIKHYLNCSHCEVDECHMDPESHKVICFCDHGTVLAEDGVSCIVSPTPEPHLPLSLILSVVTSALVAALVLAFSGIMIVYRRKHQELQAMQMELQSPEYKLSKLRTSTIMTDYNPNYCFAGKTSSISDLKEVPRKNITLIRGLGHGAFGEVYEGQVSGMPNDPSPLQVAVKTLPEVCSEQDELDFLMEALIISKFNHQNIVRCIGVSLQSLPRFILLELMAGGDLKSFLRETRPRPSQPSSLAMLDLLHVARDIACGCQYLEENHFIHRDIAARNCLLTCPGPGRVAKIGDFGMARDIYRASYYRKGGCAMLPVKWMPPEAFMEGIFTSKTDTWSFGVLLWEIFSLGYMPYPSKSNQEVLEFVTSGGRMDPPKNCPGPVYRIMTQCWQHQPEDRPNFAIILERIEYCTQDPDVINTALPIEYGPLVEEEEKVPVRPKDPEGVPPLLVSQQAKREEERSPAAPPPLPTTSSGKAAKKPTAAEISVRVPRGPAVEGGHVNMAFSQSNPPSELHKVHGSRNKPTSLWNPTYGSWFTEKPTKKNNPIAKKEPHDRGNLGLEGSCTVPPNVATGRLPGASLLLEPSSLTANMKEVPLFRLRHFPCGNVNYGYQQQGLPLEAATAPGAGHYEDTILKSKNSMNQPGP

[11] = target: Casein kinase II subunit alpha' (Homo sapiens) (UniProt P19784); test: Inhibition of human full length wild type CK2alpha2 expressed in mammalian system at 1 uM by KINOMEscan analysis relative to control
Sequence of Casein kinase II subunit alpha' (Homo sapiens) (P19784 whole entry, looked up): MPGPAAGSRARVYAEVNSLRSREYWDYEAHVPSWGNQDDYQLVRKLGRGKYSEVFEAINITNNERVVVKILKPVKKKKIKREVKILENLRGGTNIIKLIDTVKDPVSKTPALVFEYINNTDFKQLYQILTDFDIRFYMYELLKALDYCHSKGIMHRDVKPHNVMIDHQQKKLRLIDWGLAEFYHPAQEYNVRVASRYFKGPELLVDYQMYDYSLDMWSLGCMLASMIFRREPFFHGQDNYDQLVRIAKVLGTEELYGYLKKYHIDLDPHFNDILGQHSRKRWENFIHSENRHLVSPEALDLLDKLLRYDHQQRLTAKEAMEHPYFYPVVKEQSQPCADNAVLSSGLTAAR

[12] = target: RAF proto-oncogene serine/threonine-protein kinase (Homo sapiens) (UniProt P04049); test: Inhibition of human partial length wild type c-RAF (I330/T640) expressed in bacterial system at 1 uM by KINOMEscan analysis relative to control
[13] = target: Tyrosine-protein kinase Fyn (Homo sapiens) (UniProt P06241); test: Inhibition of human partial length wild type Fyn (T243/L534) expressed in bacterial system at 1 uM by KINOMEscan analysis relative to control
[14] = target: MAP kinase-interacting serine/threonine-protein kinase 2 (Homo sapiens) (UniProt Q9HBH9); test: Inhibition of human partial length wild type Mnk2 (G63/S388) expressed in mammalian system at 1 uM by KINOMEscan analysis relative to control
[15] = target: Ribosomal protein S6 kinase alpha-4 (Homo sapiens) (UniProt O75676); test: Inhibition of human partial length wild type MSK2 expressed in bacterial system at 1 uM by KINOMEscan analysis relative to control
[16] = target: Serine/threonine-protein kinase 4 (Homo sapiens) (UniProt Q13043); test: Inhibition of human full length wild type MST1 expressed in mammalian system at 1 uM by KINOMEscan analysis relative to control
[17] = target: Serine/threonine-protein kinase Nek2 (Homo sapiens) (UniProt P51955); test: Inhibition of human partial length wild type NEK2 expressed in bacterial system at 1 uM by KINOMEscan analysis relative to control
Sequence of Serine/threonine-protein kinase Nek2 (Homo sapiens) (P51955 whole entry): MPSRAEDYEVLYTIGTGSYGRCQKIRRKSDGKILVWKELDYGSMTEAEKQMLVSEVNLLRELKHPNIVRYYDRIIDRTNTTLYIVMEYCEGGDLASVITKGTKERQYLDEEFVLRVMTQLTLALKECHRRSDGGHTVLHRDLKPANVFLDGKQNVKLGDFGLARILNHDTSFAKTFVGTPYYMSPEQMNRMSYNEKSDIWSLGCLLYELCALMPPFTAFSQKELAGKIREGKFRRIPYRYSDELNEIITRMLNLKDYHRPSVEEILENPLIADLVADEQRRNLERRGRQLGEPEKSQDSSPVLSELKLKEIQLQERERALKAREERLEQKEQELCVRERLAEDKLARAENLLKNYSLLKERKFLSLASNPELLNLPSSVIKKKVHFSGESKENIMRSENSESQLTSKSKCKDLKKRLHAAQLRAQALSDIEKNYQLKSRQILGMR

[18] = target: Ribosomal protein S6 kinase beta-1 (Homo sapiens) (UniProt P23443); test: Inhibition of human partial length wild type p70S6K (M1/S421) expressed in mammalian system at 1 uM by KINOMEscan analysis relative to control
[19] = target: Platelet-derived growth factor receptor beta (Homo sapiens) (UniProt P09619); test: Inhibition of human partial length wild type PDGFRbeta V582/Y1009 expressed in bacterial system at 1 uM by KINOMEscan analysis relative to control
Sequence of Platelet-derived growth factor receptor beta (Homo sapiens) (P09619 whole entry): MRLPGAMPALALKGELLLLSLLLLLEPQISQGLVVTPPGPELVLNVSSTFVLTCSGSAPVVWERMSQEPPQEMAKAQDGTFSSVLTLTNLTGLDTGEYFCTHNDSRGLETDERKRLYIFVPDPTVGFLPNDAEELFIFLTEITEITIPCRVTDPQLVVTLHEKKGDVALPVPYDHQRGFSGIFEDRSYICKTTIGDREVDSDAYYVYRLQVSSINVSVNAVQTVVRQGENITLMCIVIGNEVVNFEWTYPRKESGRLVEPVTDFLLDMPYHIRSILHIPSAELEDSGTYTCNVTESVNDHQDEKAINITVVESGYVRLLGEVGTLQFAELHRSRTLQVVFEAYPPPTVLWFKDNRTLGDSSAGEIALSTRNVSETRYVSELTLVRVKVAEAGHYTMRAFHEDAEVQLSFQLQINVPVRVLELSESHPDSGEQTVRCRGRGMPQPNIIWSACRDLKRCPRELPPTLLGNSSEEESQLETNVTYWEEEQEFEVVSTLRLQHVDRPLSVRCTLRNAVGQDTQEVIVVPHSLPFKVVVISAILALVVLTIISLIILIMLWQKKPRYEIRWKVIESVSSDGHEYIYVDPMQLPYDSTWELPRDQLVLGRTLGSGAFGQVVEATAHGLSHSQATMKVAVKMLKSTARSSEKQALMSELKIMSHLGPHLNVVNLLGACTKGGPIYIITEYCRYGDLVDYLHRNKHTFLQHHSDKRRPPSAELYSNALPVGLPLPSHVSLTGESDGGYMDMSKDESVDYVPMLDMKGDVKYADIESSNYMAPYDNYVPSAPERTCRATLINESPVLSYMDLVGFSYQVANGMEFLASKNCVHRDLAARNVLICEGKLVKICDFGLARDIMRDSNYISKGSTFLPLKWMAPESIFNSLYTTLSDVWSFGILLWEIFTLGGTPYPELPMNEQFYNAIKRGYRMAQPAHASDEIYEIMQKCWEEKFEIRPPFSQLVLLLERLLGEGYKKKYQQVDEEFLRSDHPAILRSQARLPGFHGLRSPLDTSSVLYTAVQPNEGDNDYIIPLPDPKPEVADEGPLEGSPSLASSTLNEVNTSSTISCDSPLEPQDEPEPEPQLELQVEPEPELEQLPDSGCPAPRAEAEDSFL

[20] = target: MAP kinase-activated protein kinase 5 (Homo sapiens) (UniProt Q8IW41); test: Inhibition of human partial length wild type PRAK (M1/D322) expressed in mammalian system at 1 uM by KINOMEscan analysis relative to control
[21] = target: Tyrosine-protein kinase receptor TYRO3 (Homo sapiens) (UniProt Q06418); test: Inhibition of RSE (unknown origin) at 1 uM relative to control
[22] = target: Ribosomal protein S6 kinase alpha-1 (Homo sapiens) (UniProt Q15418); test: Inhibition of human partial length wild type Rsk1 (M1/E388) expressed in bacterial system at 1 uM by KINOMEscan analysis relative to control
Sequence of Ribosomal protein S6 kinase alpha-1 (Homo sapiens) (Q15418 whole entry): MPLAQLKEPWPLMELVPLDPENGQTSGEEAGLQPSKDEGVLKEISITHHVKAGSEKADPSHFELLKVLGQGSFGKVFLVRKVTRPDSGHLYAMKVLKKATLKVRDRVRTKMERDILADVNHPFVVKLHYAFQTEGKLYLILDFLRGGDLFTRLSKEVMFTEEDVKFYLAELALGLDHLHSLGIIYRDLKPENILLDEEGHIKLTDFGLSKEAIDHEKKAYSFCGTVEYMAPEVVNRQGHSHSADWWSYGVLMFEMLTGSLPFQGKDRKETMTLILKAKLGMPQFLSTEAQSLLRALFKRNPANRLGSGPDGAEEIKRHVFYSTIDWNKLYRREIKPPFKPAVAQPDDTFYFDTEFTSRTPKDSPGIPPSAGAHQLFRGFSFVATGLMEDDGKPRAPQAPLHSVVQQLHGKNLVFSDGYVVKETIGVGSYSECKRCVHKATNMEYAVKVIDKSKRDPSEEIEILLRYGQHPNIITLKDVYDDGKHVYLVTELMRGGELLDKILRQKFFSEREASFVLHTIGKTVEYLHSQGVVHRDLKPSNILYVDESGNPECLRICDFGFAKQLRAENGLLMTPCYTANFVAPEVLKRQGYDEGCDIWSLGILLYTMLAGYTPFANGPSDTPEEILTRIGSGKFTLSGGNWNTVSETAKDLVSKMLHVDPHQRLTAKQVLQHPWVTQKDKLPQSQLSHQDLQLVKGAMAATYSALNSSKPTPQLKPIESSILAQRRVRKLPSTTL

[23] = target: SRSF protein kinase 1 (Homo sapiens) (UniProt Q96SB4); test: Inhibition of human full length wild type SRPK1 expressed in mammalian system at 1 uM by KINOMEscan analysis relative to control
[24] = target: PI3K p110 beta/p85 alpha (Homo sapiens) (UniProt P27986+P42338); test: Inhibition of P13 kinase p110beta/p85alpha (unknown origin) at 1 uM relative to control; format: protein-complex assay
[25] = target: PI3-kinase p110-delta/p85-alpha (Homo sapiens) (UniProt P27986+O00329); test: Inhibition of PI3 Kinase p110delta/p85alpha (unknown origin) at 1 uM relative to control; format: protein-complex assay
[26] = AUClast in ICR mouse at 5 mg/kg, iv single dose measured upto 24 hrs; format: ADME, organism-based; set-up: dose 5 mg/kg, time < 24 hrs, route iv; conditions: in vivo
[27] = Observed AUC (infinitive) in ICR mouse at 5 mg/kg, iv single dose measured upto 24 hrs; format: ADME, organism-based; set-up: dose 5 mg/kg, time < 24 hrs, route iv; conditions: in vivo
[28] = Observed volume of distribution at steady state in ICR mouse at 5 mg/kg, iv single dose measured upto 24 hrs; format: ADME, organism-based; conditions: in vivo, read-out: Vdss
[29] = Efflux ratio of apparent permeability in human Caco-2 cells after 120 mins by LC-MS/MS analysis; format: ADME, cell-based
[30] = Tmax in ICR mouse at 5 mg/kg, sc single dose measured upto 24 hrs; format: ADME, organism-based; conditions: in vivo
MDCK = test: Inhibition of cyst formation in in-vitro MDCK cyst model assessed as decrease in cyst diameter at 1 to 3 uM measured for 4 to […]; format: functional, cell-based; conditions: Canis lupus familiaris, dose 1-3 µM, time lower 4.0 hrs
Mus musculus [31] = species on record: Mus musculus; test: Suppression of cyst formation in C57BL/6 mouse embryonic kidney cyst model at 1 to 3 uM measured for 4 to 12 […]; format: functional, organism-based; conditions: dose 1-3 µM, time 4-12 hrs
Mus musculus [32] = test: Reduction in cyst size in kidney-specific Pkd1 knockout ADPKD mouse model assessed as renal cystic index at 5 mg/kg by HE staining analysis; format: functional, organism-based
[33] = Toxicity in wild type mouse assessed as body weight at 5 mg/kg; format: organism-based; conditions: in vivo
[34] = Bioavailability in ICR mouse at 5 mg/kg, sc single dose measured upto 24 hrs; format: ADME, organism-based; conditions: in vivo

Work on `C=CC(=O)Nc1ccc(C(=O)Nc2n[nH]c3ccc(-c4cncc(NC[C@@H](O)c5ccccc5)c4)cc23)cc1` yielded an IC50 [1] of 4 nM, an IC50 [2] of 3370 nM and an IC50 [3] of 526 nM. The inhibition [4] was 99%, the inhibition [5] was 79% and the inhibition [6] was 76%. For the same compound, the inhibition [7] was 74%, the inhibition [8] was 68% and the inhibition [9] was 66%. For the same compound, the inhibition [10] was less than 50%, the inhibition [11] was less than 50% and the inhibition [12] was less than 50%. It also gave an inhibition [13] of less than 50%, an inhibition [14] of less than 50% and an inhibition [15] of less than 50%. For the same compound, the inhibition [16] was less than 50%, the inhibition [17] was less than 50% and the inhibition [18] was less than 50%. It also gave an inhibition [19] of less than 50%, an inhibition [20] of less than 50% and an inhibition [21] of less than 50%. For the same compound, the inhibition [22] was less than 50%, the inhibition [23] was less than 50% and the inhibition [24] was less than 50%. For the same compound, the inhibition [25] was less than 50%, the AUC(0-t) at 24 h [26] was 26900 ng·h/mL and the AUC(0-inf) [27] was 31700 ng·h/mL. It also gave a Vd [28] of 1.28 L/kg, an efflux ratio at 2 h [29] greater than 48 and a Tmax [30] of 1 h. For the same compound, the inhibition (MDCK) was “Dose-Dependent Effect”, the inhibition (Mus musculus [31]) was “Dose-Dependent Effect” and the Activity (Mus musculus [32]) was “Active”. The Activity [33] was “Non-Toxic” and the bioavailability [34] was 64.2%.
